# Molecular target: T1, GLuc (Gaussia luciferase) (Gaussia princeps (in: crustaceans), UniProt Q9BLZ2)
# T1 construct: secreted GLuc without SERCaMP peptide, in culture medium of transfected SH-SY5Y cells
# T1 sequence (Q9BLZ2 18-185): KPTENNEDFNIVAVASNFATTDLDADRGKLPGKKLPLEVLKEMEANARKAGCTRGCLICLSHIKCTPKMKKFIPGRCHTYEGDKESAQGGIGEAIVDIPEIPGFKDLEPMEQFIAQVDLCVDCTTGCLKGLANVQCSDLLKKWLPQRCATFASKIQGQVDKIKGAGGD
# Experiment: luminescence, culture medium of transfected SH-SY5Y cells
# Format: biochemical
# Conditions: 8 μM coelenterazine; flash kinetics
smiles,measurement,value
Oc1ccc(Cc2nc3c(Cc4ccccc4)nc(-c4ccc(O)cc4)cn3c2O)cc1 [coelenterazine],"luminescence, culture medium of transfected SH-SY5Y cells","GLuc and secNLuc both showed activity towards CTZ, with GLuc exhibiting flash kinetics"

# — publication PMC5389830, “Longitudinal monitoring of Gaussia and Nano luciferase activities to concurrently assess ER calcium homeostasis and ER stress in vivo” (PLoS ONE, 2017)
